Consider one compound from PubChem BioAssay AID504630 (Southern Research Specialized Biocontainment Screening …, 2011).

The test system of the assay is human PBMC cytotoxicity, % cell control. Nature of the assay: cytotoxicity in human PBMCs, dose response, cytotoxicity control for HIV-1 antiviral project, cell-based, human PBMC, set 3 (AID 504630).

As for `Cc1c2c(=O)n(-c3nc4ccccc4s3)nc-2cc(O)n1Cc1ccccc1`, the TC50 is 13.2 µM.
